Experiment: Human HepG2 cell viability assay in 384 well format
Assay type: toxicity, cell-based
Set-up: dose 125 nL, time 70.5 hour; cytotoxicity at 70.5 h: concentration not given beside the values
Details: HepG2 cells, read-out: Inhibition

SMILES | cytotoxicity at 70.5 h [%]
CCCS(=O)(=O)CCN1CCN(c2cc(F)ccc2F)CC1 | 2.83
Cn1cc(C#N)cc1C(=O)Nc1ccc(CN2CCOCC2)cn1 | -2.71
Cn1cc(C(=O)Nc2ccc(CN3CCOCC3)cn2)cn1 | -4.82
COc1cccc(CCCNC(=O)N2CCC(O)(C(F)(F)F)C2)c1 (configuration not stated) | -2.72
c1csc(CCNC2CCc3ncnn3C2)c1 (configuration not stated) | 0.839
COc1cccc(CC(=O)N2CCC(O)(C(F)(F)F)C2)c1 (configuration not stated) | -4.06
Cc1csc(CN(C)C(C)C(=O)N2CCc3ccccc3C2)n1 (configuration not stated) | 11.5
O=C(CN1CCCC1c1nc(Cc2ccc(F)cc2)no1)NC1CC1 (configuration not stated) | 0.125
O=C(CNC1CCc2ncnn2C1)N(Cc1cccs1)C1CC1 (configuration not stated) | 0.341
c1ccc(-n2cncn2)c(CNCCn2cccn2)c1 | 10.2
COCCCSc1ccc(NCc2scnc2C)cc1 | -0.225
CC(C)(CNC(=O)C1CCCCN1S(C)(=O)=O)N1CCOCC1 (configuration not stated) | 38
O=c1c2sccc2ncn1CC(O)CN1CCOCC1 (configuration not stated) | -10.3
CC(C)c1ccc(OCCNC(=O)c2ccoc2)cc1 | 23.9
CC(C)c1noc(CNc2cccc(-c3nnnn3C)c2)n1 | -8.75
CCC(=O)N1CCN(c2ccc(C(=O)OC)cc2)CC1C (configuration not stated) | -0.474
COCCNC(=O)CCNC(=O)c1ccc(N2CCC(C)=N2)cc1 | -16
Cc1cc(CN2CCN(C(=O)C3(C#N)CCCC3)CC2)on1 | 21
CC1=NN(c2ccc(C(=O)OCCNC(=O)c3ccncc3)cc2)CC1 | -2.48
CC(NS(C)(=O)=O)c1nc(-c2ccc(Br)cc2)no1 (configuration not stated) | -5.32
CCC(C)(CNC(=O)c1ccon1)NC(=O)c1ccon1 (configuration not stated) | -8.49
Cc1cc(NC(=O)N2CCCC2CN2CCOCC2)nn1C (configuration not stated) | -10.1
N#Cc1ccc(C(=O)O)nc1/C=C/c1cccc(F)c1 | -7.55
N#Cc1ccc(C(=O)O)nc1/C=C/c1cccc(Br)c1 | -4.7

SMILES | cytotoxicity at 70.5 h [%]
CCN(CC)c1ncc(CNC2CCc3ncnn3C2)s1 (configuration not stated) | -5.42
O=C(Nc1nnc(C(F)F)s1)NC(CCO)c1cccs1 (configuration not stated) | 32.8
Cc1ccc(C(=O)Nc2ccc(N(C)C)nc2)n1C | 3.75
N#Cc1cccc(OCCN2CCCC2C(=O)NC2CC2)c1 (configuration not stated) | 4.05
Cc1cc(C)n(-c2ccccc2NC(=O)NCCCN(C)S(C)(=O)=O)n1 | 5.58
N#Cc1ccc(CN2C(=O)c3ccccc3CS2(=O)=O)cc1 | -1.6
O=C(NCc1cc2ccccc2[nH]1)C1CCCN(C(=O)N2CCCC2)C1 (configuration not stated) | -3.92
CCc1nc2n(n1)CC(Nc1ccnc(-c3ccccc3)n1)CC2 (configuration not stated) | -3.97
Cc1nc2n(n1)CC(Nc1nc(-c3ccccc3)no1)CC2 (configuration not stated) | -0.185
CC(C(=O)Nc1nccs1)N1CCc2nn(C)c(=O)cc2C1 (configuration not stated) | 20.7
CCn1ncc2c1CCCC2NCc1ccc2c(c1)OCCO2 (configuration not stated) | 4.09
CC(C)(C)n1ncc2c1CCCC2NCc1cccc(C(N)=O)c1 (configuration not stated) | 3.6
CC(C)(C)n1ncc2c1CCCC2NCc1ccc2c(c1)OCCO2 (configuration not stated) | 29.2
CC(C)(C)OC(=O)N1CCC(C(=O)NCc2cc3ccccc3[nH]2)C1 (configuration not stated) | -2.83
Fc1ccc2c(C3=CCN(Cc4nnc(C5CCC5)o4)CC3)c[nH]c2c1 | 2.23
COc1ccc(C)cc1C(=O)NC1(C#N)CCOCC1 | -2.79
Cc1noc(CN(Cc2cccc(C#N)c2)Cc2ccco2)n1 | 0.0593
Cc1nc(C(=O)N(C)CC2CC2)nn1-c1ccccc1C(C)C | 36
CC(O)(CNS(=O)(=O)Cc1ccon1)c1ccsc1 (configuration not stated) | 0.988
CCN(C)S(=O)(=O)NCC(C)(O)c1ccsc1 (configuration not stated) | -0.398
CC(C)(C)n1ncc2c1CCCC2NCc1ccc2ncccc2c1 (configuration not stated) | -4.24
CC(C)(C)c1noc(CCC(=O)N2CCN(Cc3ccco3)CC2)n1 | -0.998
COC(=O)CCNC(=O)c1cccc(C(=O)N(C)c2ccccc2)c1 | 31.4
Cc1nc(CNC2CCCN(c3cccnn3)C2)no1 (configuration not stated) | 22

SMILES | cytotoxicity at 70.5 h [%]
COC(=O)CNC(=O)c1cccc(C(=O)N(C)c2ccccc2)c1 | 30.5
c1cncc(-c2noc(CNC3CCCN(c4cccnn4)C3)n2)c1 (configuration not stated) | 24.9
OC1CCCN(Cc2ccc(F)c3cccnc23)C1 (configuration not stated) | -0.871
CC(C)(C)c1ccc(C2(C(=O)NCCS(C)(=O)=O)CC2)cc1 | -6.58
Cc1nc2c(c(C)c1CC(=O)NC(C)c1ccccc1)c(=O)[nH]n2C (configuration not stated) | -2.23
Cc1cc(CNC(=O)Nc2cccc(COCCOC(C)C)c2)no1 | -0.772
Cc1ccc(-c2ccc(C(=O)NCCS(N)(=O)=O)c(F)c2)cc1 | -3.69
Cc1ccc(CN(C)C(=O)CN2CCCCC2Cn2cncn2)cc1 (configuration not stated) | 22.7
Cc1cc(CNC(=O)NC(C)c2ccccc2)no1 (configuration not stated) | 0.144
Cc1ccc(-c2ccc(C(=O)NCCC(=O)N(C)C)c(F)c2)cc1 | -6.22
CCc1nc(CN2CCCN(c3ncnc4sccc34)CC2)no1 | 16.3
CCCNC(=O)CNc1ccc2c(c1)N(C(=O)OC(C)(C)C)CCC2 | 2.81
CN(Cc1cccs1)C(=O)CN1CCCCC1Cn1cncn1 (configuration not stated) | 23.2
CNc1nc(CNC(=O)Nc2cccc(COCCOC(C)C)c2)cs1 | 2.29
Cc1ncccc1C(=O)NC1(c2cccc(F)c2)CCOCC1 | -3.77
CC(C)C1CN(C(=O)c2ccc3nccnc3c2)CCS1 (configuration not stated) | -7.38
CC(C)OCCOCc1cccc(NC(=O)NCc2cnn(C)c2)c1 | -0.106
Cc1ccccc1CN(C)C(=O)CN1CCCCC1Cn1cncn1 (configuration not stated) | -7.31
COc1cc(NC(=O)c2ccc(F)cc2Cl)c(C(=O)N(C)C)cc1OC | -8.85
COc1cc(NC(=O)c2cc(Cl)ccc2F)c(C(=O)N(C)C)cc1OC | -15.4
CC(CN1CCOCC1)NC(=O)NCc1ccoc1 (configuration not stated) | 4.07
COc1ccc(-c2nnc(SC(C)C(=O)NC3CCCC3)[nH]2)c(OC)c1 (configuration not stated) | 42.2
COc1ccc(-c2nnc(SC(C)C(N)=O)[nH]2)c(OC)c1 (configuration not stated) | -8.05
CS(=O)(=O)N1CCN(Cc2csc(-c3ncccn3)n2)CC1 | 15.5

SMILES | cytotoxicity at 70.5 h [%]
Cc1nc(N2CCCC(N3CCCC3)C2)c2cnn(C)c2n1 (configuration not stated) | -5.42
Cc1cccc(-c2c[nH]c(C3CCCN3C(=O)C3CCOCC3)n2)c1 (configuration not stated) | -10.3
COc1c(Br)cccc1CCNC(=O)c1ccon1 | -10.8
FC(F)(F)c1ccnc(N2CCCCCC2)c1 | -10.6
CC1CN(C(=O)c2ccnc(OCCN(C)C)c2)c2ccccc21 (configuration not stated) | -14.8
CCOC(C(=O)N1CCn2c(CC)nnc2C1)c1ccccc1 (configuration not stated) | -11.9
Cc1ccc(CNCc2cccc3cccnc23)c(OC2CCOC2)c1 (configuration not stated) | 12.2
CC(=O)N1CCC(NC(=O)N2CCCC2c2ccsc2)CC1 (configuration not stated) | 6.84
O=C(Cc1cc2c(cc1Br)OCCO2)NC1CCS(=O)(=O)C1 (configuration not stated) | 7.44
CN(C)CCN(Cc1ccccn1)C(=O)Nc1cccc(F)c1 | -9.47
CN(Cc1ccncc1)C(=O)c1ccc2c(c1O)OC(C)(C)C2 | -5.32
CN(CCNC(=O)N1CCCC1)C(=O)OC(C)(C)C | -11.5
N#CCCN(Cc1ccccn1)C(=O)Nc1cccc(F)c1 | -6.04
CS(=O)(=O)CCCOc1cccc(-n2ccnc2)c1 | -2.41
CN(C)S(=O)(=O)CCCOc1cccc(-n2ccnc2)c1 | -3.93
Nc1nccnc1C(=O)N(Cc1ccccc1O)CC1CCCO1 (configuration not stated) | -13.9
Cc1nnc(CN(C)C(=O)C(CC(C)C)N2CCCCC2=O)n1C (configuration not stated) | -5.01
Cc1oc(-c2ccccc2)nc1C(=O)NC1=NCCS1 | -0.24
Cc1ccc2c(c1)N(C(=O)C1CCCOC1)CCC2 (configuration not stated) | -4.9
Cc1ccc(CNCc2cccc3cn[nH]c23)c(OC2CCOC2)c1 (configuration not stated) | 3.6
Cc1nc(C(NC(=O)CC(F)(F)F)c2ccc(Cl)cc2)no1 (configuration not stated) | -2.37
COCC(=O)NC(c1ccc(Cl)cc1)c1noc(C)n1 (configuration not stated) | -2.49
O=C(NS(=O)(=O)c1cnn(-c2ccccc2F)c1)c1ccoc1 | 9.38
N#CCCN(Cc1ccccn1)C(=O)Nc1cccnc1 | -7.42

SMILES | cytotoxicity at 70.5 h [%]
CCOC1CCN(C(=O)NCCN(C)C(=O)OC(C)(C)C)CC1 | -3.79
Cc1ccc(NCc2cccc3cn[nH]c23)cc1OC1CCOC1 (configuration not stated) | -0.654
C[S+]([O-])c1cccc(NC(=O)N(CCC#N)Cc2ccccn2)c1 (configuration not stated) | -12
O=C(c1nccc2ccccc12)N(Cc1ccco1)CC1CCCO1 (configuration not stated) | 9.69
COC(=O)N1CCC(NC(=O)N2CCCC2c2ccsc2)CC1 (configuration not stated) | -4.05
COc1ccc(Cl)cc1CN(C)CC(=O)/N=c1\cc[nH]n1C(C)C1CC1 (configuration not stated) | 20.8
CCc1n[nH]c(C2CN(Cc3ncc(CC)o3)CCO2)n1 (configuration not stated) | 51.9
CN1CCCN(CCCNC2CCc3cc4c(cc32)OCCO4)CC1 (configuration not stated) | 8.36
CCN(C(=O)c1cc2c([nH]c1=O)CCCC2=O)C1CCCCC1 | -5.73
CCN(C(=O)CN1CCCC1c1ccc(F)cc1)c1ccccc1C (configuration not stated) | -3.01
CCN(C(=O)CN1CCCC1c1ccc(OC)cc1)c1ccccc1 (configuration not stated) | 2.59
CCOc1ccccc1OCC(=O)NCc1ncc(C)c(OC)c1C | -10.2
COc1ccccc1OCC(=O)NCc1ncc(C)c(OC)c1C | 11.5
CN(Cc1cnn(C)c1)C(=O)C1COCC(=O)N1Cc1ccccc1 (configuration not stated) | -4.96
COc1c(C)cnc(CNC(=O)CCOCc2ccccc2)c1C | -3.15
CC(C)c1cccc(-n2cc(O)c(C(=O)O)n2)c1 | -5.44
CNC(=O)c1ccc(CNC(=O)c2cc(C(C)C)n(C)n2)cc1 | 10.9
CCCN(C(=O)c1cc2c([nH]c1=O)CCCC2=O)C1CCCCC1 | 27.9
CC(c1ccco1)N(C(=O)c1cc2c([nH]c1=O)CCCC2=O)C1CC1 (configuration not stated) | 2.68
CCC(C)n1cnc(S(=O)(=O)N(C)C)c1 (configuration not stated) | 14.5
CC1CCN(CCCNS(=O)(=O)c2cc(F)cc(F)c2)CC1 | 48.4

Reference: ChEMBL document CHEMBL3507680, “University of Dundee, Gates Library screen for HepG2 cell viability”
